Columns and labels:
BCAT2 [1] = molecular target: T1, BCAT2 (Homo sapiens, UniProt O15382); experiment: BCAT2 in vitro enzyme inhibition assay (resazurin/diaphorase-coupled fluorescence); format: biochemical; settings: average where tested multiple times
T1 sequence (O15382 28-392): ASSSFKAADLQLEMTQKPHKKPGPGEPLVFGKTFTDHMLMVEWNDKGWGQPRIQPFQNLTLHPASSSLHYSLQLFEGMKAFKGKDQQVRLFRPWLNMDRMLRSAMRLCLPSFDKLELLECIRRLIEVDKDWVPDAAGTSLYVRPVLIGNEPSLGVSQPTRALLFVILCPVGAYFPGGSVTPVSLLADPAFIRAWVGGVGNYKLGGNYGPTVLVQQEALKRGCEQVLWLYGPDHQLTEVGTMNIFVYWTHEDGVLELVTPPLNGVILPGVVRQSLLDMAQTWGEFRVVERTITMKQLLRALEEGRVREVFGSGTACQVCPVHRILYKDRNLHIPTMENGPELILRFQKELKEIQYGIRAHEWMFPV
In short: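 Coupled fluorescence readout: glutamate formed from L-leucine/α-ketoglutarate transamination drives GDH/NAD/diaphorase reduction of resazurin (Ex 540/Em 590). Human BCAT2 was first exposed 1 h at room temperature to compound, top final 100 μM in 3-fold, 10-point series; substrate reaction ran 1 h before SDS quench, in technical duplicate with DMSO max and enzyme-free min controls.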

BCAT2 [2] = molecular target: T1, BCAT2; experiment: BCAT2 in vitro cell inhibition using engineered A549 cells (KMV cell assay, 13C6-KMV by LC-MS/MS); format: cell-based; set-up: The result was an engineered A549 cell line that expressed endogenous BCAT2; endogenous in cells; host or cells: A549 cells with MUT and BCAT1 knocked out by CRISPR/CAS9; key to BCAT2 Cell Inhibition: A: less than or equal to 0.100 μM; B: greater than 0.100 and less than or equal to 0.500 μM; C: greater than 0.500 and less than or equal to 1.000 μM; d: greater than 1.000 μM; E: no fit; settings: average where tested multiple times

SMILES | IC50 (BCAT2 [1]) [nM] | BCAT2 Cell Inhibition (BCAT2 [2]) | IC50 (BCAT2 [2]) [nM]
CC(C)Cc1nc2cnc(N3CCC[C@H]3C(N)=O)cc2n1[C@@H]1CCC[C@H](NC(=O)c2ncc(Cl)s2)C1 [Example 307, N-((1S,3R)-3-(6-((S)-2-carbamoylpyrrolidin-1-yl)-2-isobutyl-1H-imidazo[4,5-c]pyridin-1-yl)cyclohexyl)-5-chlorothiazole-2-carboxamide] | > 1000 | E | –
CC(C)Cc1nc2cnc(N3CCC[C@@H]3C(N)=O)cc2n1[C@@H]1CCC[C@H](NC(=O)c2ncc(Cl)s2)C1 [Example 308, N-((1S,3R)-3-(6-((R)-2-carbamoylpyrrolidin-1-yl)-2-isobutyl-1H-imidazo[4,5-c]pyridin-1-yl)cyclohexyl)-5-chlorothiazole-2-carboxamide] | > 1000 | E | –
CC(C)Cc1nc2cnc(N3CCC[C@H]3C#N)cc2n1[C@@H]1CCC[C@H](NC(=O)c2ncc(Cl)s2)C1 [Example 309, 5-chloro-N-((1S,3R)-3-(6-((S)-2-cyanopyrrolidin-1-yl)-2-isobutyl-1H-imidazo[4,5-c]pyridin-1-yl)cyclohexyl)thiazole-2-carboxamide] | > 1000 | E | –
CC(C)Cc1nc2cnc(N3CCC[C@@H]3C#N)cc2n1[C@@H]1CCC[C@H](NC(=O)c2ncc(Cl)s2)C1 [Example 310, 5-chloro-N-((1S,3R)-3-(6-((R)-2-cyanopyrrolidin-1-yl)-2-isobutyl-1H-imidazo[4,5-c]pyridin-1-yl)cyclohexyl)thiazole-2-carboxamide] | > 1000 | E | –
CC(C)C(F)(F)c1nc2cnc(-c3ccccn3)cc2n1[C@@H]1CCC[C@H](NC(=O)c2ncc(Cl)s2)C1 [Example 318, 5-chloro-N-((1S,3R)-3-(2-(1,1-difluoro-2-methylpropyl)-6-(pyridin-2-yl)-1H-imidazo[4,5-c]pyridin-1-yl)cyclohexyl)thiazole-2-carboxamide] | 500 to 1000 | E | –
CC(C)Cc1nc2cnc(-n3cncn3)cc2n1[C@@H]1CCC[C@H](NC(=O)c2ncc(Cl)s2)C1 [Example 323, 5-chloro-N-((1S,3R)-3-(2-isobutyl-6-(1H-1,2,4-triazol-1-yl)-1H-imidazo[4,5-c]pyridin-1-yl)cyclohexyl)thiazole-2-carboxamide] | 100 to 500 | – | > 1000
CC(C)Cc1nc2cnc(-c3ccccc3CC#N)cc2n1[C@@H]1CCC[C@H](NC(=O)c2ncc(Cl)s2)C1 [Example 333, 5-chloro-N-((1S,3R)-3-(6-(2-(cyanomethyl)phenyl)-2-isobutyl-1H-imidazo[4,5-c]pyridin-1-yl)cyclohexyl)thiazole-2-carboxamide] | > 1000 | E | –
CC(C)Cc1nc2cnc(-c3ccccc3C#N)cc2n1[C@@H]1CCC[C@H](NC(=O)c2ncc(Cl)s2)C1 [Example 335, 5-chloro-N-((1S,3R)-3-(6-(2-cyanophenyl)-2-isobutyl-1H-imidazo[4,5-c]pyridin-1-yl)cyclohexyl)thiazole-2-carboxamide] | 100 to 500 | E | –
N#Cc1ccc(-c2nc3cnc(-c4nc[nH]n4)cc3n2[C@@H]2CCC[C@H](NC(=O)c3ccc(Cl)s3)C2)c(F)c1 [Example 353, 5-chloro-N-((1S,3R)-3-(2-(4-cyano-2-fluorophenyl)-6-(1H-1,2,4-triazol-3-yl)-1H-imidazo[4,5-c]pyridin-1-yl)cyclohexyl)thiophene-2-carboxamide] | > 1000 | – | > 1000
CC(C)Cc1nc2cnc(-n3cc(C(C)O)nn3)cc2n1[C@@H]1CCC[C@H](NC(=O)c2ncc(Cl)s2)C1 (stereo partly drawn) [Example 359, 5-chloro-N-((1S,3R)-3-(6-(4-(1-hydroxyethyl)-1H-1,2,3-triazol-1-yl)-2-isobutyl-1H-imidazo[4,5-c]pyridin-1-yl)cyclohexyl)thiazole-2-carboxamide] | 100 to 500 | E | –
CC(=O)N[C@@H](c1nc2cnc(-c3nc[nH]n3)cc2n1[C@@H]1CCC[C@H](NC(=O)c2ncc(Cl)s2)C1)C(C)C [Example 369, N-((1S,3R)-3-(2-((R)-1-acetamido-2-methylpropyl)-6-(1H-1,2,4-triazol-3-yl)-1H-imidazo[4,5-c]pyridin-1-yl)cyclohexyl)-5-chlorothiazole-2-carboxamide] | 500 to 1000 | E | –
COC(=O)N[C@H](c1nc2cnc(-c3nc[nH]n3)cc2n1[C@@H]1CCC[C@H](NC(=O)c2ncc(Cl)s2)C1)C(C)C [Example 370, methyl ((S)-1-(1-((1R,3S)-3-(5-chlorothiazole-2-carboxamido)cyclohexyl)-6-(1H-1,2,4-triazol-3-yl)-1H-imidazo[4,5-c]pyridin-2-yl)-2-methylpropyl)carbamate] | > 1000 | E | –
COC(=O)N[C@@H](c1nc2cnc(-c3nc[nH]n3)cc2n1[C@@H]1CCC[C@H](NC(=O)c2ncc(Cl)s2)C1)C(C)C [Example 371, methyl ((R)-1-(1-((1R,3S)-3-(5-chlorothiazole-2-carboxamido)cyclohexyl)-6-(1H-1,2,4-triazol-3-yl)-1H-imidazo[4,5-c]pyridin-2-yl)-2-methylpropyl)carbamate] | > 1000 | E | –
CCn1c(CO)nn(-c2cc3c(cn2)nc(CC(C)C)n3[C@@H]2CCC[C@H](NC(=O)c3ccc(Cl)s3)C2)c1=O [Example 373, 5-chloro-N-((1S,3R)-3-(6-(4-ethyl-3-(hydroxymethyl)-5-oxo-4,5-dihydro-1H-1,2,4-triazol-1-yl)-2-isobutyl-1H-imidazo[4,5-c]pyridin-1-yl)cyclohexyl)thiophene-2-carboxamide] | ≤ 100 | – | > 1000
O=C(N[C@H]1CCC[C@@H](n2c(-c3ccccc3F)nc3cnc(-c4ncnn4C(F)F)cc32)C1)c1ncc(Cl)s1 [Example 376, 5-chloro-N-((1S,3R)-3-(6-(1-(difluoromethyl)-1H-1,2,4-triazol-5-yl)-2-(2-fluorophenyl)-1H-imidazo[4,5-c]pyridin-1-yl)cyclohexyl)thiazole-2-carboxamide] | 500 to 1000 | E | –
O=C(N[C@H]1CCC[C@@H](n2c(-c3ccccc3F)nc3cnc(-c4nncn4C(F)F)cc32)C1)c1ncc(Cl)s1 [Example 377, 5-chloro-N-((1S,3R)-3-(6-(4-(difluoromethyl)-4H-1,2,4-triazol-3-yl)-2-(2-fluorophenyl)-1H-imidazo[4,5-c]pyridin-1-yl)cyclohexyl)thiazole-2-carboxamide] | 500 to 1000 | – | > 1000
CC(C)(C)Cc1nc2cnc(-n3nccn3)cc2n1[C@H]1CCC[C@@H](NC(=O)c2ccc(Cl)s2)[C@@H]1O [Example 388, 5-chloro-N-((1R,2S,3S)-2-hydroxy-3-(2-neopentyl-6-(2H-1,2,3-triazol-2-yl)-1H-imidazo[4,5-c]pyridin-1-yl)cyclohexyl)thiophene-2-carboxamide] | > 1000 | E | –
CC(C)(C)Cc1nc2cnc(-c3ccccn3)cc2n1[C@H]1CCC[C@@H](NC(=O)c2ncc(Cl)s2)[C@@H]1O [Example 390, 5-chloro-N-((1R,2S,3S)-2-hydroxy-3-(2-neopentyl-6-(pyridin-2-yl)-1H-imidazo[4,5-c]pyridin-1-yl)cyclohexyl)thiazole-2-carboxamide] | 100 to 500 | – | > 1000
CC(C)Cc1nc2cnc(-c3cccc(C#N)n3)cc2n1[C@H]1CCC[C@@H](NC(=O)c2ncc(Cl)s2)[C@@H]1O [Example 391, 5-chloro-N-((1R,2S,3S)-3-(6-(6-cyanopyridin-2-yl)-2-isobutyl-1H-imidazo[4,5-c]pyridin-1-yl)-2-hydroxycyclohexyl)thiazole-2-carboxamide] | > 1000 | E | –
O=C(N[C@@H]1CCCC[C@H](n2c(-c3ccccc3F)nc3cnc(-c4nc[nH]n4)cc32)[C@H]1O)c1ccc(Cl)s1 [Example 404, 5-chloro-N-((1R,2S,3S)-3-(2-(2-fluorophenyl)-6-(1H-1,2,4-triazol-3-yl)-1H-imidazo[4,5-c]pyridin-1-yl)-2-hydroxycycloheptyl)thiophene-2-carboxamide] | 100 to 500 | – | 500 to 1000
COc1cccc(F)c1-c1nc2cnc(-c3nc[nH]n3)cc2n1[C@H]1CCCC[C@@H](NC(=O)c2ccc(Cl)s2)[C@@H]1O [Example 406, 5-chloro-N-((1R,2S,3S)-3-(2-(2-fluoro-6-methoxyphenyl)-6-(1H-1,2,4-triazol-3-yl)-1H-imidazo[4,5-c]pyridin-1-yl)-2-hydroxycycloheptyl)thiophene-2-carboxamide] | 500 to 1000 | E | –

Source: patent US20260159512A1, “BCAT2 INHIBITORS” (AGIOS PHARMACEUTICALS, INC., priority 2021, published 2026)
